Experimental data published in US20240269238A1, “Therapeutic Regimens and Methods for Reducing Body Weight in a Subject with Fatty Liver Disease using a GLP-1R and GCGR Agonist” (Spitfire Pharma LLC, priority 2022, published 2024).
Entries after “also recorded” stand apart in the source; their conditions may differ.

How the values were obtained:
[1] = Phase 1 12-week NAFLD study (Example 1): safety, tolerability, serum lipids, glycemic control, heart rate; assay type: in vivo, human; conditions: for AE leading to treatment discontinuation, number of subjects: gastrointestinal intolerance
Description: Provided herein is disclosure of a Phase 1, multicenter, randomized, double-blind, placebo-controlled study to assess the effects of Pemvidutide (also termed herein as ALT-801), the safety of Pemvidutide and effects on hepatic fat fraction, anthropometric parameters, lipid metabolism, inflammatory markers and fibrosis markers in diabetic and non-diabetic (type 2 diabetes) overweight and obese (BMI 28.0 kg/m^2) subjects with NAFLD. This study was designed to assess changes in hepatic fat fraction by MRI-PDFF (magnetic resonance imaging-proton density fat fraction) in diabetic and non-diabetic overweight and obese subjects with NAFLD after 12 weeks of ALT-801 treatment. The trial was conducted without adjunctive diet and exercise interventions. The study assessed changes in body weight, lipid metabolism, metabolic markers, and inflammatory markers and safety and tolerability of ALT-801 after 12 weeks of treatment. Subjects were stratified for the presence or absence of diabetes at baseline. Fibroscan and cT1 assessments evaluated changes in liver inflammatory and fibrotic activity at the end of 12 weeks of treatment.
The study, described in this example, was carried out in 94 subjects overweight and obese (body mass index [BMI] ≥28.0 kg/m^2) Type 2 diabetic and non-diabetic subjects with nonalcoholic fatty liver disease (NAFLD) over about 4.5 months, including up to a 35-day screening period, and 85-day treatment period and a 25-day follow-up period, with treatment with ALT-801 (a composition comprising SEQ ID NO.: 1, “study medication”) or placebo administered by subcutaneous (SC) injection once weekly for up to twelve (12) doses.
The safety objective of this study was to assess the safety and tolerability of ALT-801 in 18-65 years old subjects with NAFLD (NAFLD without significant fibrosis, defined as FibroScan® controlled attenuation parameter (CAP) ≥280 dB/m and liver stiffness measurement (LSM)<10 kPa (i.e., indicating the absence of significant fibrosis), magnetic resonance imaging derived proton density fat fraction (MRI-PDFF) ≥10%), hemoglobin Alc (HbAlc) of less than 9.5%, and alanine aminotransferase (ALT) or aspartate aminotransferase (AST) values of ≤[…]. The pharmacodynamic (PD) objectives of this study were to evaluate the effects of ALT-801 on hepatic fat fraction, anthropometric parameters, lipid metabolism, metabolic markers, inflammatory markers, fibrosis markers, and lipotoxicity markers. The pharmacokinetic (PK) objectives of this study were to evaluate the effects of ALT-801 and metformin exposure (drug interactions) on the subjects (e.g., ALT-801 and metformin concentrations in blood over time).
After providing informed consent, subjects underwent a screening period of up to 35 days. Subjects were instructed on how to maintain their normal diets, alcohol consumption and physical activities and not to start any new diets, supplements, or exercise programs at any time while participating in the study. Counseling was provided on diet and exercise on the Day 1 visit and reinforced at subsequent visits. Study subjects were randomized 1:1:1:1 to one of the following treatment arms: 1) ALT-8011.2 mg SC once weekly for 12 weeks; 2) ALT-8011.8 mg SC once weekly for 12 weeks; 3) ALT-801 0.6 mg SC at week 1, 1.2 mg SC at week 2, 1.8 mg SC once weekly for 2 weeks (weeks 3 and 4), and 2.4 mg SC once weekly for weeks 5 through 12; or, 4) placebo SC once weekly for 12 weeks. Subjects were stratified by presence or absence of diabetes at baseline. Subjects in the treatment arm with a final therapeutic dose of 2.4 mg underwent a rapid 4-week dose escalation to improve tolerability and reduce the possibility of adverse events. […] See FIG. 7, second 2.4 mg column as compared to the first 2.4 mg column (this study). See WO 2022/125598. […]

[2] = target: glucagon receptor (GCGR) (Homo sapiens, UniProt P47871); test: cellular assay, agonist activity at GCGR; assay type: cell-based
Chain of glucagon receptor (GCGR) (P47871 26-477): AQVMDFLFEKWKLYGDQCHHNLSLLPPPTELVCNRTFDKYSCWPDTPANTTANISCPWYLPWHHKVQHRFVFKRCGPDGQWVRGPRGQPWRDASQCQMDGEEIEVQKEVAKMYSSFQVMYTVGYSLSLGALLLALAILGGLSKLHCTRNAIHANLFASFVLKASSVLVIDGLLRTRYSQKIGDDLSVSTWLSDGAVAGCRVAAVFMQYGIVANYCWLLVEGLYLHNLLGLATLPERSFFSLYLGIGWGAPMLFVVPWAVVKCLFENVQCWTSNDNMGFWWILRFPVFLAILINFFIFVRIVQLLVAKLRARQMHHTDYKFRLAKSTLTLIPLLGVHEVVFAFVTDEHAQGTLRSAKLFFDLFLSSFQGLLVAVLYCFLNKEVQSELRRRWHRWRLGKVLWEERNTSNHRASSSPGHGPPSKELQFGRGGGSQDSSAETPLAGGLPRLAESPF
Description: This disclosure relates to a dual agonist peptide(s) as well as pharmaceutical dosage formulations comprising, and methods for using, the same. The dual agonist peptides have affinity for, and in preferred embodiments about equal affinity for, glucagon-like peptide 1 receptor (GLP-1R) and glucagon receptor (GCGR), as may be determined using a cellular assay. In some embodiments, this disclosure provides pharmaceutical dosage formulations configured to induce weight loss in a human being with fatty liver disease. In some embodiments, the human being may, or may not, suffer from type 2 diabetes. In some embodiments, the disclosure provides pharmaceutical dosage formulations configured to reduce pathogenic plasma lipid mediators. As used herein, “pathogenic” serum lipid mediators, included but are not limited to the following reactive lipid species: malondialdehyde (MDA), isolevuglandins (IsoLG), methyglyoxal (MGO), 4-oxononenal (ONE), and 4-hydroxynonenal (HNE). Oxidized phospholipids include 1-palmitoyl-2-oxovaleroyl-sn-glycero-3-phosphorylcholine (POVPC), 1-O-alkyl-2-azelaoyl-sn-glycero-3-phophorylcholine (azPAF), 1-(Palmitoyl)-2-(5-keto-6-octene-dioyl) phosphatidylcholine (KOdiA-PC), 1-palmitoyl-2-F2-isoprostane-sn-glycero-3-phosphocholine (F2IsoP-PC), and 1-palmitoyl-2-(5,6)-epoxyisoprostane E2-sn-glycero-3-phosphocholine (PEIPC). […]

With CC[C@H](C)[C@H](NC(=O)[C@H](Cc1ccccc1)NC(=O)[C@H](CCC(=O)O)NC(=O)[C@@H]1CCCCNC(=O)CC[C@H](NC(=O)[C@H](CC(=O)O)NC(=O)[C@H](CC(C)C)NC(=O)[C@H](Cc2ccc(O)cc2)NC(=O)[C@H](CCCCN)NC(=O)[C@H](CO)NC(=O)[C@H](Cc2ccc(O)cc2)NC(=O)[C@H](CC(=O)O)NC(=O)[C@H](CO)NC(=O)[C@@H](NC(=O)[C@H](Cc2ccccc2)NC(=O)[C@@H](NC(=O)CNC(=O)[C@H](CCC(N)=O)NC(=O)C(C)(C)NC(=O)[C@@H](N)Cc2c[nH]cn2)[C@@H](C)O)[C@H](C)O)C(=O)N[C@@H](CCCCNC(=O)C2O[C@@H](OCCCCCCCCCCCCCCCCCC(=O)O)C(O)C(O)[C@@H]2O)C(=O)N[C@@H](C)C(=O)N[C@@H](C)C(=O)N1)C(=O)N[C@@H](CCC(N)=O)C(=O)N[C@@H](Cc1c[nH]c2ccccc12)C(=O)N[C@@H](CC(C)C)C(=O)N[C@@H](CC(C)C)C(=O)N[C@@H](CCC(N)=O)C(=O)N[C@H](C(N)=O)[C@@H](C)O (stereo partly shown) [ALT-801, Pemvidutide] the “AE leading to treatment discontinuation, rate” value ([1]; 1.8 mg arm, 12 weeks) was 4.3%, the “AE leading to treatment discontinuation, number of subjects” value ([1]; 1.8 mg arm, 12 weeks) was 1 and the “AE leading to treatment discontinuation, rate” value ([1]; 2.4 mg arm, 12 weeks) was 4.2%. For the same compound, the “AE leading to treatment discontinuation, number of subjects” value ([1]; 2.4 mg arm, 12 weeks) was 1, the “AEs leading to treatment discontinuation (in words)” value ([1]; 12 weeks) was “very low rates” and the “clinically significant ALT elevations (3-fold or greater the upper limit of normal)” value ([1]; 12 weeks) was “No clinically significant ALT elevations; also recorded: no three-fold or greater ALT elevations were observed”. For the same compound, the “glycemic control (HbA1c, fasting glucose)” value ([1]; 12 weeks) was “unaffected”, the “increases in heart rate (HR)” value ([1]; 12 weeks) was 1-3 beat-per-minute (bpm) and the “serious and severe adverse events” value ([1]; 12 weeks treatment) was “No serious adverse events (AEs), severe AEs were observed; also recorded: no severe or serious AEs were observed”. For the same compound, the “symptoms experienced by subjects (severity)” value ([1]; 12 weeks treatment) was “predominantly mild and transient”, the serum lipids ([1]; after 12 weeks) was “not significantly altered” and the tolerability ([1]; each treatment arm (FIG. 7)) was “well tolerated”. The EC50 [2] was about 40 pM.
